In US20260151375A1, “CDK2 INHIBITORS AND METHODS OF USING THE SAME” (Cedilla Therapeutics, Inc., priority 2022, published 2026):

Experiments:
[1] = target: T1, CDK2/Cyclin E1 (Homo sapiens, UniProt P24941); assay: Caliper Assay (LabChip EZ Reader mobility shift assay), inhibition of CDK2/Cyclin E1 activity; type: biochemical; conditions: 2.5 nM CDK2/Cyclin E1(14-475), 100 μM ATP, 30 min preincubation; read-out: Caliper Assay (CDK2/CCNE1): IC50
T1 construct: purchased 14-475
Outline: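 Compounds were preincubated 30 min with CDK2/Cyclin E1(14-475), then run for 100 min with 2.5 nM enzyme, 100 μM ATP and 1.5 μM 5-FAM-QSPKKG peptide in HEPES pH 7.5 (final). Reactions were EDTA-stopped and substrate-to-product conversion read by mobility shift. IC50 came from a four-parameter fit.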

[2] = system: Kuramochi cells; assay: IncuCyte Kuramochi Assay (cell proliferation); type: cell-based; conditions: 72 h, Kuramochi cells labeled with mApple-H2B, cell count, read-out: IncuCyte - Kuramochi RB-WT: IC50
Outline: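 Cells imaged at 0 and 72 h after compound treatment (10 points, ½ log dilution, 20 μM top), with fluorescent nuclei counted. Fold change in count was normalized to DMSO wells and fitted to dose-response curves to give GI50.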

What does the source list for `COC(=O)c1coc(C2CN(C(=O)c3cnn(Cc4ccccc4)c3)CC23CN(C(=O)[C@H]2CC2(C)C)C3)n1` (stereo partly drawn) [I-86, methyl 2-(6-(1-benzyl-1H-pyrazole-4-carbonyl)-2-((S)-2,2-dimethylcyclopropane-1-carbonyl)-2,6-diazaspiro[3.4]octan-8-yl)oxazole-4-carboxylate]?
IC50 [1]: > 10 µM; IC50 [2]: > 10 µM

Which results are given for `CC1(C)C[C@@H]1C(=O)N1CC2(CN(C(=O)c3cnn(Cc4ccccc4)c3)CC2c2ccc(NC(=O)C3CCCCC3)cc2)C1` (stereo partly drawn) [I-87, N-(4-(6-(1-benzyl-1H-pyrazole-4-carbonyl)-2-((S)-2,2-dimethylcyclopropane-1-carbonyl)-2,6-diazaspiro[3.4]octan-8-yl)phenyl)cyclohexanecarboxamide]?
IC50 [1]: 1 to 10 µM; IC50 [2]: 5 to 10 µM

Which results are given for `C[C@H](NC(=O)c1coc(C2CN(C(=O)c3cnn(Cc4ccccc4)c3)CC23CN(C(=O)[C@H]2CC2(C)C)C3)n1)c1ccccc1` (stereo partly drawn) [I-88]?
IC50 [1]: 0.1 to 1 µM; IC50 [2]: > 10 µM

`C[C@H](NC(=O)c1coc(C2CN(C(=O)c3cnn(Cc4ccccc4)c3)CC23CN(C(=O)[C@H]2CC2(C)C)C3)n1)C1CCCCC1` (stereo partly drawn) [I-89] was tested. Which IC50 [1] did it give?
The IC50 was 0.1 to 1 µM.

And the IC50 [2]?
The IC50 was 5 to 10 µM.

`C[C@@H](NC(=O)c1coc(C2CN(C(=O)c3cnn(Cc4ccccc4)c3)CC23CN(C(=O)[C@H]2CC2(C)C)C3)n1)C1CCCCC1` (stereo partly drawn) [I-90] was tested. Which IC50 [1] did it give?
The IC50 was 0.01 to 0.1 µM.

And the IC50 [2]?
Its IC50 is 5 to 10 µM.

Which results are given for `CC1(C)C[C@@H]1C(=O)N1CC2(CN(C(=O)c3cnn(Cc4ccccc4)c3)CC2c2nc(C(=O)NCc3ccccc3)co2)C1` (stereo partly drawn) [I-91, N-benzyl-2-(6-(1-benzyl-1H-pyrazole-4-carbonyl)-2-((S)-2,2-dimethylcyclopropane-1-carbonyl)-2,6-diazaspiro[3.4]octan-8-yl)oxazole-4-carboxamide]?
IC50 [1]: 0.1 to 1 µM; IC50 [2]: > 10 µM

With `CC1(C)C[C@@H]1C(=O)N1CC2(CN(C(=O)c3cnn(Cc4ccccc4)c3)CC2c2nc(C(=O)NCC3CCCCC3)co2)C1` (stereo partly drawn) [I-92] as the compound, how does the IC50 [1] read?
Its IC50 is 0.01 to 0.1 µM.

And the IC50 [2]?
Its IC50 is 5 to 10 µM.

For `CC1(C)C[C@@H]1C(=O)N1CC2(CN(C(=O)c3cnn(Cc4ccccc4)c3)CC2c2ccc(NCc3ccccc3)cc2)C1` (stereo partly drawn) [I-93, (1-benzyl-1H-pyrazol-4-yl)(8-(4-(benzylamino)phenyl)-2-((S)-2,2-dimethylcyclopropane-1-carbonyl)-2,6-diazaspiro[3.4]octan-6-yl)methanone], which IC50 [1] is on record?
The IC50 was 1 to 10 µM.

And the IC50 [2]?
The IC50 was 5 to 10 µM.

What does the source list for `CC(c1nnc(C2CN(C(=O)c3cncs3)CC23CN(C(=O)[C@H]2CC2(C)C)C3)o1)n1ccc(C2CCCC2)n1` (stereo partly drawn) [I-96]?
IC50 [1]: 0.01 to 0.1 µM; IC50 [2]: > 10 µM

With `CC1(C)C[C@@H]1C(=O)N1CC2(CN(C(=O)c3cncs3)CC2c2nnc(C3(c4cccc(C5CCOCC5)n4)COC3)o2)C1` (stereo partly drawn) [I-97] as the compound, how does the IC50 [1] read?
The IC50 was 0.1 to 1 µM.

What about the IC50 [2] of the same compound?
Its IC50 is > 10 µM.

`CC1(C)C[C@@H]1C(=O)N1CC2(C1)CN(c1cccc3ncsc13)CC2c1nnc(C(F)(F)c2ccc(Cl)c(Cl)c2)o1` (stereo partly drawn) [I-98, (6-(benzo[d]thiazol-7-yl)-8-(5-((3,4-dichlorophenyl)difluoromethyl)-1,3,4-oxadiazol-2-yl)-2,6-diazaspiro[3.4]octan-2-yl)((S)-2,2-dimethylcyclopropyl)methanone] was tested. Which IC50 [1] did it give?
The IC50 was > 10 µM.

And the IC50 [2]?
The IC50 was > 10 µM.

How did the IC50 [1] turn out when `O=C(c1cncs1)N1CC(c2nnc(Cc3ccc(Cl)c(Cl)c3)o2)C2(C1)CN(c1nccc(C(F)(F)F)n1)C2` (stereo not drawn) [I-99] was run?
The IC50 was > 10 µM.

What about the IC50 [2] of the same compound?
Its IC50 is > 10 µM.

Which results are given for `CC(c1coc(C2CCCC2)n1)c1nc(C2CN(C(=O)c3cncs3)CC23CN(C(=O)[C@H]2CC2(C)C)C3)no1` (stereo partly drawn) [I-100]?
IC50 [1]: 0.1 to 1 µM; IC50 [2]: 5 to 10 µM

`CC1(C)C[C@@H]1C(=O)N1CC2(C1)CN(c1cccc3ncsc13)CC2c1nnc(Cc2ccc(Cl)c(Cl)c2)o1` (stereo partly drawn) [I-101, (6-(benzo[d]thiazol-7-yl)-8-(5-(3,4-dichlorobenzyl)-1,3,4-oxadiazol-2-yl)-2,6-diazaspiro[3.4]octan-2-yl)((S)-2,2-dimethylcyclopropyl)methanone] was tested. Which IC50 [1] did it give?
Its IC50 is > 10 µM.

And the IC50 [2]?
Its IC50 is > 10 µM.

Which results are given for `CC(C)(c1cccc(C2CCOCC2)n1)c1nnc(C2CN(C(=O)c3cncs3)CC23CN(C(=O)[C@H]2CC2(C)C)C3)o1` (stereo partly drawn) [I-102]?
IC50 [1]: 0.01 to 0.1 µM; IC50 [2]: > 10 µM
